According to publication PMC4383725 (Cell reports, 2015):
pKd: −log10 of the molar value.

Molecular target: T1, oxysterol-binding protein (OSBP) (Homo sapiens, UniProt P22059)
T1 sequence (P22059 2-807): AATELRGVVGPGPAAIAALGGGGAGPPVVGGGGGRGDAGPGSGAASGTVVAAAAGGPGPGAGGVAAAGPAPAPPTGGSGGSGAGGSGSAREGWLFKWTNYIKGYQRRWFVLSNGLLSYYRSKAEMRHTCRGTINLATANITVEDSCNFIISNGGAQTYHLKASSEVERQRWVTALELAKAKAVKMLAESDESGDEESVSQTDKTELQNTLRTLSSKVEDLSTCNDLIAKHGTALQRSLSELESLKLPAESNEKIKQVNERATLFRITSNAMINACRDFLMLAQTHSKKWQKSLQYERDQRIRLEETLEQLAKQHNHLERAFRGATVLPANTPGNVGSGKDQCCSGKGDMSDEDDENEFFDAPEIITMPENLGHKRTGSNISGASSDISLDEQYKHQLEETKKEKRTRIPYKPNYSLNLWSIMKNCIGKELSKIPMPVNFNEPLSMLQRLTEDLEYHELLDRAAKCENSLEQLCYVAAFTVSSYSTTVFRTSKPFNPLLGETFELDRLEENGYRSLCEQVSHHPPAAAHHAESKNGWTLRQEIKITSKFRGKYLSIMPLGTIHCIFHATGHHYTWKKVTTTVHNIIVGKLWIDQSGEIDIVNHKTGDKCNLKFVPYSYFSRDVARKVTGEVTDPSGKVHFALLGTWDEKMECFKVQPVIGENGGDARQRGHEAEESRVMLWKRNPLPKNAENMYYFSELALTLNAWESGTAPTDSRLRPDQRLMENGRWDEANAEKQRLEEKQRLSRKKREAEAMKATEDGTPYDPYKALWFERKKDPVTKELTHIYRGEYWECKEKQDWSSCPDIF
Assay: MicroScale Thermophoresis with purified GFP-OSBP

CCC(C)n1ncn(-c2ccc(N3CCN(c4ccc(OCC5COC(Cn6cncn6)(c6ccc(Cl)cc6Cl)O5)cc4)CC3)cc2)c1=O (stereo not shown) [ITZ, itraconazole]
pKd: ~6.37
